Source: PubChem BioAssay (NCI)
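A five-concentration, 48-hour dose response in 96-well plates underlies each endpoint, interpolated linearly between surrounding concentrations. GI50 is the concentration that inhibits growth by half. TGI is the concentration that stops growth completely.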

Columns and labels:
Experiment in all cases: DTP human tumour cell line panel, 48 h
SK-MEL-5 melanoma = test system: SK-MEL-5 melanoma
SK-MEL-28 melanoma = test system: SK-MEL-28 melanoma
SK-OV-3 ovarian = test system: SK-OV-3 ovarian
ACHN renal = test system: ACHN renal
CCRF-CEM leukemia = test system: CCRF-CEM leukemia
MDA-MB-435 = test system: MDA-MB-435
OVCAR-5 ovarian = test system: OVCAR-5 ovarian
MOLT-4 leukemia = test system: MOLT-4 leukemia
SF-539 CNS = test system: SF-539 CNS
SNB-75 CNS = test system: SNB-75 CNS
A498 renal = test system: A498 renal
RPMI-8226 leukemia = test system: RPMI-8226 leukemia
CAKI-1 renal = test system: CAKI-1 renal
EKVX NSCLC = test system: EKVX NSCLC
BT-549 breast = test system: BT-549 breast
HL-60(TB) leukemia = test system: HL-60(TB) leukemia
T-47D breast = test system: T-47D breast
UACC-62 melanoma = test system: UACC-62 melanoma
PC-3 prostate = test system: PC-3 prostate
RXF 393 renal = test system: RXF 393 renal
HS 578T breast = test system: HS 578T breast
MCF7 breast = test system: MCF7 breast
K-562 leukemia = test system: K-562 leukemia
U251 CNS = test system: U251 CNS
HCT-15 colon = test system: HCT-15 colon
SNB-19 CNS = test system: SNB-19 CNS
UACC-257 melanoma = test system: UACC-257 melanoma
SR leukemia = test system: SR leukemia
SF-268 CNS = test system: SF-268 CNS
LOX IMVI melanoma = test system: LOX IMVI melanoma
NCI-H23 lung = test system: NCI-H23 lung
SN12C renal = test system: SN12C renal
UO-31 renal = test system: UO-31 renal
TK-10 renal = test system: TK-10 renal
MDA-MB-231 breast = test system: MDA-MB-231 breast
M14 melanoma = test system: M14 melanoma
MALME-3M melanoma = test system: MALME-3M melanoma
A549 NSCLC = test system: A549 NSCLC
SK-MEL-2 melanoma = test system: SK-MEL-2 melanoma
HCC-2998 colon = test system: HCC-2998 colon
NCI-H226 lung = test system: NCI-H226 lung
NCI-H460 lung = test system: NCI-H460 lung
HOP-92 NSCLC = test system: HOP-92 NSCLC
OVCAR-3 ovarian = test system: OVCAR-3 ovarian
SW-620 colon = test system: SW-620 colon
HT29 colon = test system: HT29 colon
DU-145 prostate = test system: DU-145 prostate
IGROV1 ovarian = test system: IGROV1 ovarian
KM12 colon = test system: KM12 colon
786-0 renal = test system: 786-0 renal
NCI/ADR-RES ovarian = test system: NCI/ADR-RES ovarian
COLO 205 colon = test system: COLO 205 colon
HCT-116 colon = test system: HCT-116 colon
OVCAR-4 ovarian = test system: OVCAR-4 ovarian
NCI-H522 lung = test system: NCI-H522 lung
OVCAR-8 ovarian = test system: OVCAR-8 ovarian
HOP-62 NSCLC = test system: HOP-62 NSCLC

C=Cc1c(C)c2cc3nc(cc4[nH]c(cc5nc(cc1[nH]2)C(C)=C5CCC(=O)O)c(CCC(=O)OC)c4C)[C@@]1(C)C3=CC=C(C(=O)OC)[C@H]1C(=O)OC
GI50 (SK-MEL-5 melanoma): 1700 nM
TGI (SK-MEL-5 melanoma): 3150 nM
GI50 (SK-MEL-28 melanoma): 1510 nM
TGI (SK-MEL-28 melanoma): 3000 nM
GI50 (SK-OV-3 ovarian): 1850 nM
TGI (SK-OV-3 ovarian): 3540 nM
GI50 (ACHN renal): 1340 nM
TGI (ACHN renal): 2620 nM
GI50 (CCRF-CEM leukemia): 829 nM
TGI (CCRF-CEM leukemia): 3680 nM
GI50 (MDA-MB-435): 357 nM
TGI (MDA-MB-435): 1340 nM
GI50 (OVCAR-5 ovarian): 1590 nM
TGI (OVCAR-5 ovarian): 3070 nM
GI50 (MOLT-4 leukemia): 388 nM
TGI (MOLT-4 leukemia): 1890 nM
GI50 (SF-539 CNS): 1400 nM
TGI (SF-539 CNS): 2700 nM
GI50 (SNB-75 CNS): 846 nM
TGI (SNB-75 CNS): 2180 nM
GI50 (A498 renal): 1190 nM
TGI (A498 renal): 2520 nM
GI50 (RPMI-8226 leukemia): 1270 nM
TGI (RPMI-8226 leukemia): > 100000 nM
GI50 (CAKI-1 renal): 1170 nM
TGI (CAKI-1 renal): 2390 nM
GI50 (EKVX NSCLC): 2100 nM
TGI (EKVX NSCLC): 5380 nM
GI50 (BT-549 breast): 1240 nM
TGI (BT-549 breast): 2800 nM
GI50 (HL-60(TB) leukemia): 2090 nM
TGI (HL-60(TB) leukemia): 5700 nM
GI50 (T-47D breast): 1480 nM
TGI (T-47D breast): 4530 nM
GI50 (UACC-62 melanoma): 1370 nM
TGI (UACC-62 melanoma): 2800 nM
GI50 (PC-3 prostate): 1430 nM
TGI (PC-3 prostate): 6690 nM
GI50 (RXF 393 renal): 1970 nM
TGI (RXF 393 renal): 4470 nM

N#C/C=C(\c1ccc([N+](=O)[O-])cc1)n1nnc2cc(Cl)c(Cl)cc21
GI50 (SK-MEL-5 melanoma): 1830 nM
TGI (SK-MEL-5 melanoma): 3600 nM
GI50 (HS 578T breast): 2390 nM
TGI (HS 578T breast): 8940 nM
GI50 (SK-MEL-28 melanoma): 2080 nM
TGI (SK-MEL-28 melanoma): 4230 nM
GI50 (MCF7 breast): 738 nM
TGI (MCF7 breast): 3320 nM
GI50 (K-562 leukemia): 2390 nM
TGI (K-562 leukemia): > 100000 nM
GI50 (U251 CNS): 1710 nM
TGI (U251 CNS): 3370 nM
GI50 (HCT-15 colon): 1850 nM
TGI (HCT-15 colon): 5360 nM
GI50 (SK-OV-3 ovarian): 5100 nM
TGI (SK-OV-3 ovarian): 18500 nM
GI50 (SNB-19 CNS): 2370 nM
TGI (SNB-19 CNS): 7140 nM
GI50 (UACC-257 melanoma): 2060 nM
TGI (UACC-257 melanoma): 4530 nM
GI50 (ACHN renal): 1630 nM
TGI (ACHN renal): 3160 nM
GI50 (SR leukemia): 1520 nM
TGI (SR leukemia): > 100000 nM
GI50 (SF-268 CNS): 3580 nM
TGI (SF-268 CNS): 33500 nM
GI50 (LOX IMVI melanoma): 1670 nM
TGI (LOX IMVI melanoma): 3190 nM
GI50 (CCRF-CEM leukemia): 2310 nM
TGI (CCRF-CEM leukemia): 29400 nM
GI50 (NCI-H23 lung): 2280 nM
TGI (NCI-H23 lung): 6680 nM
GI50 (MDA-MB-435): 1750 nM
TGI (MDA-MB-435): 3700 nM
GI50 (OVCAR-5 ovarian): 1950 nM
TGI (OVCAR-5 ovarian): 3990 nM
GI50 (MOLT-4 leukemia): 2710 nM
TGI (MOLT-4 leukemia): > 100000 nM
GI50 (SF-539 CNS): 1770 nM
TGI (SF-539 CNS): 3260 nM
GI50 (SN12C renal): 2080 nM
TGI (SN12C renal): 5400 nM
GI50 (UO-31 renal): 1110 nM
TGI (UO-31 renal): 2320 nM
GI50 (TK-10 renal): 2600 nM
TGI (TK-10 renal): 4160 nM
GI50 (MDA-MB-231 breast): 2340 nM
TGI (MDA-MB-231 breast): 8660 nM
GI50 (M14 melanoma): 1860 nM
TGI (M14 melanoma): 4500 nM
GI50 (SNB-75 CNS): 2130 nM
TGI (SNB-75 CNS): 8110 nM
GI50 (A498 renal): 1740 nM
TGI (A498 renal): 3430 nM
GI50 (RPMI-8226 leukemia): 604 nM
TGI (RPMI-8226 leukemia): 2910 nM
GI50 (MALME-3M melanoma): 1700 nM
TGI (MALME-3M melanoma): 4180 nM
GI50 (A549 NSCLC): 3450 nM
TGI (A549 NSCLC): 13600 nM
GI50 (SK-MEL-2 melanoma): 2560 nM
TGI (SK-MEL-2 melanoma): 6420 nM
GI50 (HCC-2998 colon): 1770 nM
TGI (HCC-2998 colon): 3330 nM
GI50 (NCI-H226 lung): 3000 nM
TGI (NCI-H226 lung): 17100 nM
GI50 (CAKI-1 renal): 1370 nM
TGI (CAKI-1 renal): 2910 nM
GI50 (EKVX NSCLC): 1910 nM
TGI (EKVX NSCLC): 4670 nM
GI50 (NCI-H460 lung): 2360 nM
TGI (NCI-H460 lung): 6980 nM
GI50 (BT-549 breast): 1770 nM
TGI (BT-549 breast): 3770 nM
GI50 (HOP-92 NSCLC): 1780 nM
TGI (HOP-92 NSCLC): 4280 nM
GI50 (OVCAR-3 ovarian): 1880 nM
TGI (OVCAR-3 ovarian): 3910 nM
GI50 (HL-60(TB) leukemia): 2710 nM
TGI (HL-60(TB) leukemia): 41100 nM
GI50 (SW-620 colon): 1750 nM
TGI (SW-620 colon): 4150 nM
GI50 (HT29 colon): 2050 nM
TGI (HT29 colon): 4230 nM
GI50 (DU-145 prostate): 1650 nM
TGI (DU-145 prostate): 3300 nM
GI50 (IGROV1 ovarian): 1820 nM
TGI (IGROV1 ovarian): 4080 nM
GI50 (KM12 colon): 2620 nM
TGI (KM12 colon): 11300 nM
GI50 (786-0 renal): 2090 nM
TGI (786-0 renal): 3580 nM
GI50 (NCI/ADR-RES ovarian): 2540 nM
TGI (NCI/ADR-RES ovarian): 8790 nM
GI50 (COLO 205 colon): 1910 nM
TGI (COLO 205 colon): 3910 nM
GI50 (HCT-116 colon): 1340 nM
TGI (HCT-116 colon): 2700 nM
GI50 (OVCAR-4 ovarian): 1540 nM
TGI (OVCAR-4 ovarian): 2890 nM
GI50 (UACC-62 melanoma): 1770 nM
TGI (UACC-62 melanoma): 3950 nM
GI50 (PC-3 prostate): 1560 nM
TGI (PC-3 prostate): 4000 nM
GI50 (NCI-H522 lung): 1720 nM
TGI (NCI-H522 lung): 3570 nM
GI50 (OVCAR-8 ovarian): 3020 nM
TGI (OVCAR-8 ovarian): 12000 nM
GI50 (HOP-62 NSCLC): 1990 nM
TGI (HOP-62 NSCLC): 5040 nM
GI50 (RXF 393 renal): 1820 nM
TGI (RXF 393 renal): 3770 nM

C[C@H]1[C@H](C)CC[C@]2(C(=O)OCCOCCOCC[P+](c3ccccc3)(c3ccccc3)c3ccccc3)CC[C@]3(C)C(=CC[C@@H]4[C@@]5(C)CC[C@H](OC(=O)C(Cl)Cl)C(C)(C)[C@@H]5CC[C@]43C)[C@H]12
GI50 (HS 578T breast): 202 nM
TGI (HS 578T breast): 3200 nM
GI50 (ACHN renal): 540 nM
TGI (ACHN renal): 1260 nM
GI50 (CCRF-CEM leukemia): 227 nM
TGI (CCRF-CEM leukemia): 1610 nM
GI50 (HL-60(TB) leukemia): 161 nM
TGI (HL-60(TB) leukemia): 804 nM
GI50 (SW-620 colon): 234 nM
TGI (SW-620 colon): 955 nM
GI50 (DU-145 prostate): 301 nM
TGI (DU-145 prostate): 941 nM
